Assay results: ChEMBL document CHEMBL1144367, “QSAR for anti-RNA-virus activity, synthesis, and assay of anti-RSV carbonucleosides given a unified representation of spectral moments, quadratic, and topologic indices” (2005)
Values after ≈ are worked out from the molar mass of the structure shown.

Tests used:
Type in all cases: functional
Settings in all cases: Homo sapiens
[1] = tested on: HeLa; assay: Minimum cytotoxicity concentration to HeLa cell line was determined
[2] = tested on: HeLa; assay: Minimum inhibitory concentration against coxsackie virus B4 was determined
[3] = tested on: HeLa; assay: Minimum inhibitory concentration against vesicular stomatitis virus was determined
[4] = tested on: HeLa; assay: Minimum inhibitory concentration against respiratory syncytial virus was determined

| SMILES | MCC [1] [µg/mL] | MIC50 [2] [µg/mL] | MIC50 [3] [µg/mL] | MIC50 [4] [µg/mL] |
| --- | --- | --- | --- | --- |
| NC1=NC2C(N=CN2[C@H]2CCCC[C@H]2CO)C(Cl)=N1 (some centres undefined) | > 200 | 120 (≈ 423 µM) | > 200 | 8 (≈ 28.2 µM) |
| OC[C@@H]1CCCC[C@@H]1N1C=NC2C(Cl)=NC=NC21 (some centres undefined) | 400 | > 80 |  | > 80 |
| NC1=NC=NC2C1N=CN2[C@H]1CCCC[C@H]1CO (some centres undefined) | 400 | > 80 |  | 3.2 (≈ 12.8 µM) |
| NC(=O)c1ncn([C@@H]2O[C@H](CO)[C@@H](O)[C@H]2O)n1 [RIBAVIRIN] | > 400 | 48 (≈ 197 µM) | 16 (≈ 65.5 µM) | 1.92 (≈ 7.86 µM) |
